The target in data set [1] is Phosphatidylinositol 4,5-bisphosphate 3-kinase catalytic subunit alpha isoform (Homo sapiens, UniProt P42336). In words: Displacement of Alexafluor labelled kinase tracer314 from recombinant N-terminal His6-tagged PI3K p110alpha (unknown origin) incubated for 1 hr by FRET-based LanthaScreen Eu kinase binding assay. For orientation: Time-resolved FRET reads energy transfer from a long-lived donor to a nearby acceptor.

A short description of another data set: cells. The following applies: Homo sapiens, A2058, 1 h.
Data set [2] is described as follows: Inhibition of Class 1 PI3K/mTOR in human A2058 cells assessed as reduction in Akt phosphorylation at Ser473 residue incubated for 1 hr by InCell Western assay. The format is cell-based. The following applies: A2058, 1 h.
Data set [3] deals with Serine/threonine-protein kinase mTOR (Homo sapiens, UniProt P42345). In words: Displacement of Alexafluor labelled kinase tracer314 from recombinant human C-terminal GST-tagged mTOR (1360 to 2549 amino acids) expressed in insect cells incubated for 1 hr by FRET-based LanthaScreen Eu kinase binding assay.
The nature of data set [4]: Half-life in dog hepatocytes. The data set is classed as ADME, cell-based, Canis lupus familiaris, Hepatocyte.
The nature of data set [5]: Intrinsic clearance in mouse hepatocytes assessed per 10^6 cells. The data set is classed as ADME, cell-based, Hepatocyte. The following applies: read-out: CLH.
Data set [6] is described as follows: Intrinsic clearance in human hepatocytes assessed per 10^6 cells. The data set is classed as ADME, cell-based, Hepatocyte. The following applies: read-out: CLH.
Data set [7] in a line: Half-life clearance in human hepatocytes. The format is ADME, cell-based, Hepatocyte.
The nature of data set [8]: Half-life in mouse hepatocytes. The data set is classed as ADME, cell-based, Hepatocyte.
The nature of data set [9]: Half-life in rat hepatocytes. The data set is classed as ADME, cell-based, Hepatocyte.
Data set [10] can be described thus: Intrinsic clearance in rat hepatocytes assessed per 10^6 cells. As to conditions: read-out: CLH. The data set is classed as ADME, cell-based, Hepatocyte.
Data set [11] can be described thus: Intrinsic clearance in dog hepatocytes assessed per 10^6 cells. The format is ADME, cell-based, Canis lupus familiaris, Hepatocyte. The following applies: read-out: CLH.
The next data set relates to A2058. Put plainly: Antiproliferative activity against human A2058 cells at 5 to 0.02 uM after 72 hrs by […] staining based assay. The format is functional, cell-based.
For another data set, the system named is SK-OV-3. In words: Antiproliferative activity against human SKOV3 cells at 5 to 0.02 uM after 72 hrs by […] staining based assay. The data set is classed as functional, cell-based.

The values that follow come from ChEMBL document CHEMBL4359834 (J Med Chem, 2019).

One may read the Ki as the dissociation constant of the complex between target and ligand, obtained from inhibition or displacement. As a reminder, the IC50 is the concentration that inhibits the measured activity by half. As a reminder, the half-life is how long it takes for the measured level to halve.

Calls of active or inactive are those of the source. No cut-off for these calls is given here.

Chain of Phosphatidylinositol 4,5-bisphosphate 3-kinase catalytic subunit alpha isoform (P42336 whole entry, canonical isoform): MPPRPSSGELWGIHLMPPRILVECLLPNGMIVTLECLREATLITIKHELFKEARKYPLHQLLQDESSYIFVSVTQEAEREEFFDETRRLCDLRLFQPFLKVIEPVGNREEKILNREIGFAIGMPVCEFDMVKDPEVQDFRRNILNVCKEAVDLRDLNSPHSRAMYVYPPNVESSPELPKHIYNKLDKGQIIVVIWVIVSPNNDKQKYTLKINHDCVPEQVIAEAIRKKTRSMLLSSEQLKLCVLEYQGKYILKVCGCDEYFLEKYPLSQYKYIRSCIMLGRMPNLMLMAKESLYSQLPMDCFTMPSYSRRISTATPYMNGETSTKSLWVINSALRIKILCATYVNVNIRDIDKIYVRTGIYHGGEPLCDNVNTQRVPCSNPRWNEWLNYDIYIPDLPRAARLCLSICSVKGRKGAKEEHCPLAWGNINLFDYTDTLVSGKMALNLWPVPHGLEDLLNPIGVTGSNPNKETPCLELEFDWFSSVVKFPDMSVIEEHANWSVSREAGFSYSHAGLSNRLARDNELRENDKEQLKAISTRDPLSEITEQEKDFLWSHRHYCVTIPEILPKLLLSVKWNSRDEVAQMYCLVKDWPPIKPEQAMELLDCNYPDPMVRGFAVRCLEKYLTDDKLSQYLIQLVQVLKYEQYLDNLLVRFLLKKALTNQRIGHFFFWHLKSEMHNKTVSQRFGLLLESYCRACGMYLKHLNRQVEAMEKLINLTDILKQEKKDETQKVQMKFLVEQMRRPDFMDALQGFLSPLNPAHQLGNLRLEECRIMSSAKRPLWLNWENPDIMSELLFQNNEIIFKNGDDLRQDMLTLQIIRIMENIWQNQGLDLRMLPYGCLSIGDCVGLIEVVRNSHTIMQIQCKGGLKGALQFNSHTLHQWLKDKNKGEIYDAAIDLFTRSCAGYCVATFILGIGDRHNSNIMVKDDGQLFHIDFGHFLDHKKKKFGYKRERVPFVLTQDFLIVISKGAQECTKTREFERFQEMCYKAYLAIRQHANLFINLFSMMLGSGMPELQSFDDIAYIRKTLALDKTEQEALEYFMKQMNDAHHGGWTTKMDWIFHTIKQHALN
Description for cells: Inhibition of Class 1 PI3K/mTOR in human A2058 cells assessed as reduction in S6 phosphorylation at Ser235/236 residue incubated for 1 hr by InCell Western assay

For the compound `C[C@H]1COCCN1c1cc(-c2cnc(N)cc2C(F)F)nc(N2CCOCC2)n1`, the Ki was 13.7 nM in data set [1] and 42.3 nM in [3]. Moreover, the values for the 50% inhibitory concentration (IC50) (in “cells”; in data set [2]) were 766 nM and 614 nM, respectively.

Consider `C[C@@H]1COCCN1c1nc(-c2cnc(N)cc2C(F)(F)F)nc(N2CCOCC2)n1`, for which the Ki was 53.7 nM in data set [1] and 109 nM in [3]. Moreover, the IC50 in “cells” came out at 410 nM; in [2], 373 nM.

Regarding `O=c1ccc2ccc(O)cc2o1` [UMBELLIFERONE], the half-life in data set [4] amounted to 10.2 min; in data set [7] it was 21.1 min; in data set [8], 11.9 min; in [9], 11.1 min. Moreover, the hepatocyte CLint in data set [5] was determined as 116 µL/min/1e6 cells; in data set [6], 65.5 µL/min/1e6 cells; in [10] it was 124 µL/min/1e6 cells; in [11] it was 138 µL/min/1e6 cells.

`C[C@H]1COCCN1c1nc(-c2cnc(N)nc2C(F)F)nc(N2CCOCC2)n1`: the IC50 in “cells” turned out to be 63.9 nM; in [2], 32.4 nM. Further, the inhibitory constant (Ki) in data set [3] is 10.6 nM.

For `C[C@H]1COCCN1c1nc(-c2cnc(N)cc2C(F)(F)F)nc(N2CCOCC2)n1`, the results for the inhibitory constant (Ki) in data set [1] and in [3] were 8.3 nM and 25.5 nM, respectively. The figures for the half-inhibitory concentration (IC50) (in “cells”; in data set [2]) were 89.8 nM and 196 nM, respectively.

Consider `C[C@@H]1COCCN1c1nc(-c2cnc(N)cc2C(F)(F)F)nc(N2CCOC[C@H]2C)n1`, for which the inhibition constant (Ki) in data set [1] amounted to 684 nM; in [3], 171 nM. For the same compound, the results for the IC50 (in the data set “cells”; in data set [2]) were 1120 nM and 1700 nM, respectively.

Regarding `CCOc1ccc2ccc(=O)oc2c1`, the half-life in [4] amounted to 8.49 min; in data set [7], 70 min; in data set [8] it was 18.7 min; in data set [9], 46.2 min. For the same compound, the hepatocyte CLint in data set [5] is 74 µL/min/1e6 cells; in [6], 20 µL/min/1e6 cells; in [10] it was 30 µL/min/1e6 cells; in data set [11] it was 163 µL/min/1e6 cells.

`C[C@H]1COCCN1c1nc(-c2cnc(N)cc2C(F)F)cc(N2CCOCC2)n1`: the half-inhibitory concentration (IC50) in the data set “cells” worked out at 125 nM; in data set [2], 146 nM. For the same compound, the Ki in [3] came to 10 nM.

On to `C[C@@H]1COC[C@@H](C)N1c1nc(-c2cnc(N)cc2C(F)(F)F)nc(N2[C@H](C)COC[C@H]2C)n1`, for which the inhibition constant Ki in [1] was greater than 20000 nM; in [3] it was 1890 nM. In addition, the IC50 in the data set “cells” is 14500 nM; in [2] it was greater than 20000 nM.

In the case of `C[C@H]1COCCN1c1nc(-c2cnc(N)nc2C(F)(F)F)nc(N2CCOCC2)n1`, the Ki in data set [1] turned out to be 4 nM; in [3], 37.9 nM. Moreover, the IC50 in the data set “cells” stood at 164 nM; in data set [2] it was 91 nM.

For `Nc1cc(C(F)(F)F)c(-c2nc(N3CC4CCC(C3)O4)nc(N3CC4CCC(C3)O4)n2)cn1`, the inhibitory constant (Ki) in [1] amounted to 731 nM; in [3], 177 nM. Also, the 50% inhibitory concentration (IC50) is 691 nM in the data set “cells” and 947 nM in data set [2].

On to `C[C@@H]1COC[C@H](C)N1c1nc(-c2cnc(N)cc2C(F)(F)F)nc(N2CCOCC2)n1`, for which the Ki in [1] came to 27.4 nM; in data set [3], 19.3 nM. Besides, the IC50 in “cells” turned out to be 135 nM; in [2], 122 nM.

On to `Nc1cc(C(F)(F)F)c(-c2nc(N3CCOCC3)nc(N3CCOCC3)n2)cn1`, for which the result in the data set with A2058 and with SK-OV-3 was Active.

On to `Nc1cc(C(F)(F)F)c(-c2nc(N3CCOCC3)nc(N3CC4CCC(C3)O4)n2)cn1`, for which the values for the inhibitory constant (Ki) in data set [1] and in [3] were 31 nM and 47.8 nM, respectively. For the same compound, the half-inhibitory concentration (IC50) worked out at 212 nM in “cells” and 274 nM in data set [2].

`C[C@H]1COCCN1c1cc(-c2cnc(N)nc2C(F)F)nc(N2CCOCC2)n1`: the inhibition constant (Ki) in [1] is 2 nM; in [3], 192 nM. Besides, the 50% inhibitory concentration (IC50) in the data set “cells” is 387 nM; in data set [2] it was 99.6 nM.

As to `C[C@@H]1COC[C@H](C)N1c1nc(-c2cnc(N)cc2C(F)(F)F)nc(N2[C@H](C)COC[C@@H]2C)n1`, the figures for the inhibitory constant (Ki) in data set [1] and in [3] were 31.4 nM and 39.6 nM, respectively. In addition, the concentration for half-maximal inhibition (IC50) in the data set “cells” amounted to 437 nM; in data set [2], 567 nM.

In the case of `C[C@H]1COC[C@H](C)N1c1nc(-c2cnc(N)cc2C(F)(F)F)nc(N2[C@@H](C)COC[C@@H]2C)n1`, the inhibitory constant (Ki) in data set [1] worked out at 37 nM; in data set [3], 265 nM. The IC50 in “cells” was 531 nM; in data set [2] it was 610 nM.

Consider `Nc1cc(C(F)(F)F)c(-c2nc(N3CCOCC3)nc(N3C4CCC3COC4)n2)cn1`, for which the Ki in data set [1] came to 19.9 nM; in data set [3], 43.1 nM. Moreover, the IC50 in the data set “cells” turned out to be 156 nM; in data set [2], 420 nM.

Regarding `C[C@@H]1COC[C@@H](C)N1c1nc(-c2cnc(N)cc2C(F)(F)F)nc(N2CCOCC2)n1`, the figures for the inhibitory constant (Ki) in [1] and in [3] were 88.9 nM and 64.5 nM, respectively. In addition, the figures for the half-maximal inhibitory concentration (IC50) (in the data set “cells”; in data set [2]) were 457 nM and 435 nM, respectively.

Consider `C[C@H]1COCCN1c1nc(-c2cnc(N)nc2C(F)F)cc(N2CCOCC2)n1`, for which the Ki in [1] is 4.1 nM; in data set [3], 15.3 nM. Moreover, the IC50 in the data set “cells” came to 146 nM; in data set [2], 77.3 nM.

As to `C[C@H]1COCCN1c1nc(-c2cnc(N)cc2C(F)(F)F)nc(N2CCOC[C@@H]2C)n1`, the inhibitory constant (Ki) in [1] was determined as 6.8 nM; in data set [3], 137 nM. Further, the values for the IC50 (in “cells”; in [2]) were 283 nM and 248 nM, respectively.

`Nc1cc(C(F)(F)F)c(-c2nc(N3C4CCC3COC4)nc(N3C4CCC3COC4)n2)cn1`: the Ki in data set [1] was 4640 nM; in data set [3], 76.8 nM. Further, the IC50 in “cells” was determined as 299 nM; in data set [2] it was 755 nM.

As to `C[C@H]1COC[C@H](C)N1c1nc(-c2cnc(N)cc2C(F)(F)F)nc(N2CCOCC2)n1`, the Ki in [1] came to 15.2 nM; in [3], 59.2 nM. Besides, the values for the IC50 (in the data set “cells”; in data set [2]) were 126 nM and 100 nM, respectively.
